Patent publication US20230250096A1, “SUBSTITUTED PHENYL-1H-PYRROLO[2,3-c] PYRIDINE DERIVATIVES” (Janssen Pharmaceutica NV, priority 2021, published 2023)
Read-outs that look alike come from different tables or passages of the source.

Columns and labels:
Assay type in all cases: cell-based, human
[1] = tested on: KO-52 cells; assay: Proliferation assay (spheroid confluence, 8 days), KO-52 control cell line; details: read-out: spheroid assay_KO-52 IC50
Experimental: The anti-proliferative effect of menin/MLL protein/protein interaction inhibitor test compounds was assessed in human leukemia cell lines. The cell line MOLM14 harbors a MLL translocation and expresses the MLL fusion protein MLL-AF9, respectively, as well as the wildtype protein from the second allele. OCI-AML3 cells that carry the NPM1c gene mutation were also tested. […] KO-52 was used as a control cell line containing two MLL (KMT2A) wildtype alleles in order to exclude compounds that display general cytotoxic effects.
MOLM14 cells were cultured in RPMI-1640 (Sigma Aldrich) supplemented with 10% heat-inactivated fetal bovine serum (HyClone), 2 mM L-glutamine (Sigma Aldrich) and 50 μg/ml gentamycin (Gibco). KO-52 and OCI-AML3 cell lines were propagated in alpha-MEM (Sigma Aldrich) supplemented with 20% heat-inactivated fetal bovine serum (HyClone), 2 mM L-glutamine (Sigma Aldrich) and 50 μg/ml gentamycin (Gibco).
In order to assess the anti-proliferative effects, 200 MOLM14 cells, 200 OCI-AML3 cells or 300 KO-52 cells were seeded in 200 μl media per well in 96-well round bottom, ultra-low attachment plates (Costar, catalogue number 7007). Cell seeding numbers were chosen based on growth curves to ensure linear growth throughout the experiment. Test compounds were added at different concentrations and the DMSO content was normalized to 0.3%. Cells were incubated for 8 days at 37° C. and 5% CO2. Spheroid like growth was measured in real-time by live-cell imaging (IncuCyteZOOM, Essenbio, 4×objective) acquiring images at day 8. Confluence (%) as a measure of spheroid size was determined using an integrated analysis tool.
In order to determine the effect of the test compounds over time, the confluence in each well as a measure of spheroid size, was calculated. Confluence of the highest dose of a reference compound was used as baseline for the LC (Low control) and the confluence of DMSO treated cells was used as 0% cytotoxicity (High Control, HC).
Absolute IC50 values were calculated as percent change in confluence as follows:
LC=Low Control: cells treated with e.g. 1 μM of the cytotoxic agent staurosporin, or e.g. cells treated with a high concentration of an alternative reference compound
HC=High Control: Mean confluence (%) (DMSO treated cells)
% Effect=100−(100*(Sample−LC)/(HC−LC))
GraphPad Prism (version 7.00) was used to calculate the IC50. Dose-response equation was used for the plot of % Effect vs Log10 compound concentration with a variable slope and fixing the maximum to 100% and the minimum to 0%.

[2] = tested on: MEIS1 mRNA expression; assay: MEIS1 mRNA expression assay (Quantigene Singleplex) in MOLM14 cells; details: 48 hours incubation
In short: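 MOLM14 cells, 3,750/well, exposed to increasing compound concentrations for 48 h. MEIS1 mRNA measured by QuantiGene Singleplex branched-DNA hybridization (lysis 45 min, hybridization 18–22 h, both 55 °C), normalized to RPL28. IC50 fitted to background-corrected fold change versus DMSO.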

[3] = tested on: MOLM14 cells; assay: Proliferation assay (spheroid confluence, 8 days), MOLM14; details: read-out: spheroid assay_MOLM14 IC50
In short: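 Cells grown as spheroids in ultra-low attachment round-bottom wells (200 MOLM14 or OCI-AML3, 300 KO-52 per well) with compound dilutions at 0.3% DMSO, 8 days, 37° C. Confluence from live-cell imaging at day 8; % effect normalized to DMSO and high-dose reference/staurosporin, absolute IC50 from variable-slope fit.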

SMILES | IC50 [1] [nM] | IC50 [2] [nM] | IC50 ([3]; MOLM14) [nM] | IC50 ([1]; Homo sapiens) [nM] | IC50 ([2]; Homo sapiens, MOLM-14, 48 h) [nM] | IC50 ([3]; Homo sapiens, MOLM-14, MOLM14) [nM]
Cc1cncc2c1c(CC1CCN(CC3CCC(=O)N(C)CC3)C1)cn2-c1ccc(F)cc1C(=O)N(C)C(C)C (single isomer, unassigned) [Compound 184b] | > 15000 | 115 | 52 | – | – | –
Cc1cncc2c1c(C[C@@H]1CCN(C[C@H]3CCOC3)C1)cn2-c1ccc(F)cc1C(=O)N(C)C(C)C (single isomer, unassigned) [Compound 190a] | – | – | – | 10000 | 113 | 40
Cc1cncc2c1c(C[C@@H]1CCN(C[C@@H]3CCOC3)C1)cn2-c1ccc(F)cc1C(=O)N(C)C(C)C (single isomer, unassigned) [Compound 190b] | – | – | – | 4900 | 65 | 46
Cc1cncc2c1c(CC1CN(C[C@H]3CCOC3)C1)cn2-c1ccc(F)cc1C(=O)N(C)C(C)C (single isomer, unassigned) [Compound 191a] | – | – | – | 4600 | 39 | 7
Cc1cncc2c1c(CC1CN(C[C@@H]3CCOC3)C1)cn2-c1ccc(F)cc1C(=O)N(C)C(C)C (single isomer, unassigned) [Compound 191b] | – | – | – | 7000 | 41 | 33
Cc1cncc2c1c(C[C@@H]1CCN(CC3CCC(O)CC3)C1)cn2-c1ccc(F)cc1C(=O)N(C)C(C)C (single isomer, unassigned) [Compound 205a] | 7000 | – | – | – | 21 | 23
Cc1cncc2c1c(C[C@@H]1CCN(CC3CCC(O)CC3)C1)cn2-c1ccc(F)cc1C(=O)N(C)C(C)C (single isomer, unassigned) [Compound 205b] | 3200 | 31 | 25 | – | – | –
CC(=O)N1CCC([C@H](CO)N2CC[C@@H](Cc3cn(-c4ccc(F)cc4C(=O)N(C)C(C)C)c4cncc(C)c34)C2)CC1 (single isomer, unassigned) [Compound 206a] | – | – | – | 6600 | 24 | 13
CC(=O)N1CCC(CN2CC[C@@H](Cc3cn(-c4ccc(F)cc4C(=O)N4CCC5CC54)c4cncc(C)c34)C2)CC1 (single isomer, unassigned) [Compound 311a] | – | – | – | 7700 | 14 | 18
CC(=O)N1CCC(CN2CC[C@@H](Cc3cn(-c4ccc(F)cc4C(=O)N4CCC5CC54)c4cncc(C)c34)C2)CC1 (single isomer, unassigned) [Compound 311b] | > 15000 | 26 | 35 | – | – | –
Cc1cncc2c1c(C[C@@H]1CCN(C[C@H]3CCNC(=O)CC3)C1)cn2-c1ccc(F)cc1C(=O)N1[C@H](C)CC[C@H]1C (single isomer, unassigned) [Compound 352a] | – | – | – | > 15000 | 13 | 7
Cc1cncc2c1c(C[C@@H]1CCN(C[C@@H]3CCNC(=O)CC3)C1)cn2-c1ccc(F)cc1C(=O)N1[C@H](C)CC[C@H]1C (single isomer, unassigned) [Compound 352b] | – | – | – | > 15000 | 266 | 140
Cc1cncc2c1c(C[C@@H]1CCN(CC3CCNC(=O)CC3)C1)cn2-c1ccc(F)cc1C(=O)N1CCC[C@H]1C (single isomer, unassigned) [Compound 353a] | – | 12 | – | > 15000 | – | 6
COCCN(C)CCCC(C(C)C)N1CC[C@@H](Cc2cn(-c3ccc(F)cc3C(=O)N(C)C(C)C)c3cncc(Cl)c23)C1 (stereo partly drawn) [Compound 3] | – | – | – | 1100 | 10 | 4
COCCN(C)CCCC(C(C)C)N1CC[C@H](Cc2cn(-c3ccc(F)cc3C(=O)N(C)C(C)C)c3cncc(Cl)c23)C1 (stereo partly drawn) [Compound 4] | – | – | – | 3000 | 11 | 5
COCCN(C)CCCC(C(C)C)N1CCC(Cc2cn(-c3ccc(F)cc3C(=O)N(C)C(C)C)c3cncc(F)c23)C1 (stereo not drawn) [Compound 6] | – | – | – | 1500 | 49 | 34
CNC(=O)[C@H]1CC[C@H](CN2CC(Cc3cn(-c4ccc(F)cc4C(=O)N(C)C(C)C)c4cncc(C)c34)C2)CC1 [Compound 74] | – | – | – | 5200 | 12 | 4
